Measurements as given in the NIST ThermoML archive (doi:10.1016/j.jct.2006.03.018).

Key:
[1] = 101 kPa, Liquid
[2] = refractive index (Na D-line) (dimensionless); settings: 101.33 kPa, Liquid
[3] = xn = mol fraction of the nth substance listed; settings: 101 kPa, Liquid
[4] = refractive index (Na D-line) (dimensionless); xn = mol fraction of the nth substance listed; settings: 101 kPa, Liquid

CC(C)CCO [3-methylbutan-1-ol]
Settings	mass density, 298.15 K [kg/m3]	mass density, 303.15 K [kg/m3]	mass density, 308.15 K [kg/m3]	refractive index, 298.15 K	refractive index, 303.15 K	speed of sound, 298.15 K [m/s]	viscosity, 298.15 K [mPa·s]	viscosity, 303.15 K [mPa·s]
[1]	807.2	803.45	791.86	–	–	1241	3.835	3.261
[2]	–	–	–	1.405	1.403	–	–	–

COc1ccccc1 [anisole] + CCCCO
Settings	mass density, 298.15 K [kg/m3]	mass density, 303.15 K [kg/m3]	mass density, 308.15 K [kg/m3]	refractive index, 298.15 K	refractive index, 303.15 K	refractive index, 308.15 K	speed of sound, 298.15 K [m/s]	viscosity, 298.15 K [mPa·s]	viscosity, 303.15 K [mPa·s]	viscosity, 308.15 K [mPa·s]
[3], x1 = 0.1064	824.95	820.92	816.89	–	–	–	1258	2.015	1.778	1.576
[3], x1 = 0.1923	841.43	837.28	833.12	–	–	–	1276	1.702	1.511	1.352
[3], x1 = 0.2988	861.78	857.49	853.21	–	–	–	1298	1.409	1.261	1.136
[3], x1 = 0.3972	880.06	875.69	871.31	–	–	–	1314	1.285	1.145	1.051
[3], x1 = 0.493	897.25	892.77	888.3	–	–	–	1334	1.129	1.041	0.939
[3], x1 = 0.5968	922.83	918.26	913.66	–	–	–	1347	1.063	0.968	0.886
[3], x1 = 0.7834	930.28	925.7	921.11	–	–	–	1364	0.985	0.907	0.844
[3], x1 = 0.8332	957.86	953.17	948.47	–	–	–	1376	0.968	0.893	0.824
[3], x1 = 0.892	969.05	964.35	959.64	–	–	–	1390	0.962	0.884	0.822
[3], x1 = 1	989.15	984.45	979.73	–	–	–	1412	0.988	0.913	0.854
[4], x1 = 0.1064	–	–	–	1.4108	1.4069	1.4031	–	–	–	–
[4], x1 = 0.1923	–	–	–	1.4221	1.4197	1.4173	–	–	–	–
[4], x1 = 0.2988	–	–	–	1.4354	1.4332	1.4307	–	–	–	–
[4], x1 = 0.3972	–	–	–	1.4473	1.4449	1.4421	–	–	–	–
[4], x1 = 0.493	–	–	–	1.4586	1.4563	1.4535	–	–	–	–
[4], x1 = 0.5968	–	–	–	1.4719	1.4679	1.4651	–	–	–	–
[4], x1 = 0.7834	–	–	–	1.4848	1.4822	1.4795	–	–	–	–
[4], x1 = 0.8332	–	–	–	1.4911	1.4888	1.4858	–	–	–	–
[4], x1 = 0.892	–	–	–	1.5027	1.5005	1.4966	–	–	–	–
[4], x1 = 1	–	–	–	1.5137	1.5113	1.5088	–	–	–	–

COc1ccccc1 [anisole] + CC(C)CCO
x1 = 1
Settings	mass density, 298.15 K [kg/m3]	mass density, 303.15 K [kg/m3]	mass density, 308.15 K [kg/m3]	refractive index, 298.15 K	refractive index, 303.15 K	refractive index, 308.15 K	speed of sound, 298.15 K [m/s]	viscosity, 298.15 K [mPa·s]	viscosity, 303.15 K [mPa·s]	viscosity, 308.15 K [mPa·s]
[3]	989.15	984.45	979.73	–	–	–	1412	0.988	0.913	0.854
[4]	–	–	–	1.5137	1.5113	1.5088	–	–	–	–

CC(C)O [propan-2-ol] + COc1ccccc1
x2 = 0
Settings	mass density, 298.15 K [kg/m3]	mass density, 303.15 K [kg/m3]	mass density, 308.15 K [kg/m3]	refractive index, 298.15 K	refractive index, 303.15 K	refractive index, 308.15 K	speed of sound, 298.15 K [m/s]	viscosity, 298.15 K [mPa·s]	viscosity, 303.15 K [mPa·s]	viscosity, 308.15 K [mPa·s]
[3]	781.36	777.09	772.75	–	–	–	1141	2.042	1.755	1.521
[4]	–	–	–	1.3745	1.3721	1.3702	–	–	–	–

COc1ccccc1 [anisole] + CCCCCO
Settings	mass density, 298.15 K [kg/m3]	mass density, 303.15 K [kg/m3]	mass density, 308.15 K [kg/m3]	refractive index, 298.15 K	refractive index, 303.15 K	refractive index, 308.15 K	speed of sound, 298.15 K [m/s]	viscosity, 298.15 K [mPa·s]	viscosity, 303.15 K [mPa·s]	viscosity, 308.15 K [mPa·s]
[3], x1 = 0.1013	828.63	824.77	820.91	–	–	–	1298	2.677	2.332	2.051
[3], x1 = 0.2032	846.67	842.67	838.66	–	–	–	1311	2.005	1.773	1.575
[3], x1 = 0.3022	864.26	860.11	855.96	–	–	–	1324	1.743	1.545	1.384
[3], x1 = 0.3946	880.67	876.42	872.17	–	–	–	1336	1.513	1.359	1.219
[3], x1 = 0.4912	897.83	893.47	889.11	–	–	–	1350	1.318	1.195	1.091
[3], x1 = 0.5984	916.91	912.45	907.98	–	–	–	1361	1.18	1.072	0.979
[3], x1 = 0.6976	934.59	930.04	925.49	–	–	–	1374	1.092	0.999	0.916
[3], x1 = 0.7965	952.41	947.78	943.15	–	–	–	1388	1.004	0.927	0.853
[3], x1 = 0.8974	970.59	965.9	961.2	–	–	–	1395	0.955	0.88	0.919
[3], x1 = 1	989.15	984.45	979.73	–	–	–	1412	0.988	0.913	0.854
[4], x1 = 0.1013	–	–	–	1.4091	1.4066	1.404	–	–	–	–
[4], x1 = 0.2032	–	–	–	1.4166	1.4138	1.4112	–	–	–	–
[4], x1 = 0.3022	–	–	–	1.4237	1.4219	1.4201	–	–	–	–
[4], x1 = 0.3946	–	–	–	1.4333	1.4302	1.4272	–	–	–	–
[4], x1 = 0.4912	–	–	–	1.4429	1.4401	1.4379	–	–	–	–
[4], x1 = 0.5984	–	–	–	1.4561	1.4533	1.451	–	–	–	–
[4], x1 = 0.6976	–	–	–	1.4667	1.4642	1.4616	–	–	–	–
[4], x1 = 0.7965	–	–	–	1.4807	1.4778	1.4747	–	–	–	–
[4], x1 = 0.8974	–	–	–	1.4963	1.4934	1.491	–	–	–	–
[4], x1 = 1	–	–	–	1.5137	1.5113	1.5088	–	–	–	–

CCCO [propan-1-ol] + COc1ccccc1
x2 = 0
Settings	mass density, 298.15 K [kg/m3]	mass density, 303.15 K [kg/m3]	mass density, 308.15 K [kg/m3]	refractive index, 298.15 K	refractive index, 303.15 K	refractive index, 308.15 K	speed of sound, 298.15 K [m/s]	viscosity, 298.15 K [mPa·s]	viscosity, 303.15 K [mPa·s]	viscosity, 308.15 K [mPa·s]
[3]	799.96	795.93	791.86	–	–	–	1206	1.792	1.706	1.518
[4]	–	–	–	1.3826	1.3808	1.3782	–	–	–	–

CCO [ethanol] + COc1ccccc1
x2 = 0
Settings	mass density, 298.15 K [kg/m3]	mass density, 303.15 K [kg/m3]	mass density, 308.15 K [kg/m3]	refractive index, 298.15 K	refractive index, 303.15 K	refractive index, 308.15 K	speed of sound, 298.15 K [m/s]	viscosity, 298.15 K [mPa·s]	viscosity, 303.15 K [mPa·s]	viscosity, 308.15 K [mPa·s]
[3]	785.91	781.6	777.26	–	–	–	1161	1.073	0.971	0.889
[4]	–	–	–	1.3591	1.3572	1.355	–	–	–	–

CCCCCO [pentan-1-ol] + COc1ccccc1
x2 = 0
Settings	mass density, 298.15 K [kg/m3]	mass density, 303.15 K [kg/m3]	mass density, 308.15 K [kg/m3]	refractive index, 298.15 K	refractive index, 303.15 K	refractive index, 308.15 K	speed of sound, 298.15 K [m/s]	viscosity, 298.15 K [mPa·s]	viscosity, 303.15 K [mPa·s]	viscosity, 308.15 K [mPa·s]
[3]	810.92	807.23	803.52	–	–	–	1286	3.403	2.959	2.581
[4]	–	–	–	1.4073	1.405	1.4032	–	–	–	–

COc1ccccc1 [anisole] + CCO
Settings	mass density, 298.15 K [kg/m3]	mass density, 303.15 K [kg/m3]	mass density, 308.15 K [kg/m3]	refractive index, 298.15 K	refractive index, 303.15 K	refractive index, 308.15 K	speed of sound, 298.15 K [m/s]	viscosity, 298.15 K [mPa·s]	viscosity, 303.15 K [mPa·s]	viscosity, 308.15 K [mPa·s]
[3], x1 = 0.0998	822.6	818.11	813.62	–	–	–	1178	0.995	0.908	0.831
[3], x1 = 0.1985	852.71	848.12	843.52	–	–	–	1226	0.934	0.851	0.777
[3], x1 = 0.2976	878.53	873.84	869.14	–	–	–	1277	0.91	0.829	0.768
[3], x1 = 0.3973	900.47	895.73	890.99	–	–	–	1290	0.881	0.813	0.747
[3], x1 = 0.5008	920.46	915.68	910.89	–	–	–	1301	0.882	0.807	0.749
[3], x1 = 0.5968	936.53	931.73	926.92	–	–	–	1314	0.849	0.784	0.727
[3], x1 = 0.7015	952.42	947.62	942.81	–	–	–	1326	0.894	0.832	0.774
[3], x1 = 0.7935	964.6	960.01	955.42	–	–	–	1340	0.897	0.83	0.772
[3], x1 = 0.9014	977.99	973.42	968.84	–	–	–	1355	0.923	0.858	0.792
[3], x1 = 1	989.15	984.45	979.73	–	–	–	1412	0.988	0.913	0.854
[4], x1 = 0.0998	–	–	–	1.3856	1.3838	1.3814	–	–	–	–
[4], x1 = 0.1985	–	–	–	1.4085	1.4066	1.4039	–	–	–	–
[4], x1 = 0.2976	–	–	–	1.4284	1.4261	1.4241	–	–	–	–
[4], x1 = 0.3973	–	–	–	1.4459	1.4428	1.4402	–	–	–	–
[4], x1 = 0.5008	–	–	–	1.461	1.4586	1.4567	–	–	–	–
[4], x1 = 0.5968	–	–	–	1.4737	1.4711	1.4695	–	–	–	–
[4], x1 = 0.7015	–	–	–	1.4864	1.4842	1.4816	–	–	–	–
[4], x1 = 0.7935	–	–	–	1.4955	1.4934	1.4907	–	–	–	–
[4], x1 = 0.9014	–	–	–	1.5046	1.5031	1.5008	–	–	–	–
[4], x1 = 1	–	–	–	1.5137	1.5113	1.5088	–	–	–	–
